Experimental data as given in ChEMBL document CHEMBL3259801, “Design and synthesis of new vancomycin derivatives” (Bioorg Med Chem Lett, 2014).
≈ marks a conversion by molar mass, not a printed value.

How the values were obtained:
Staphylococcus aureus [1] = assay: Antibacterial activity against vancomycin-sensitive Staphylococcus aureus Newman assessed as inhibition of bacterial growth after 16 hrs; type: functional, organism-based
Staphylococcus aureus [2] = assay: Antibacterial activity against vancomycin-intermediate resistant Staphylococcus aureus Mu50 assessed as inhibition of bacterial growth after 16 hrs; type: functional, organism-based; conditions: Mu50, 16 h

CCCCCCOC(CN[C@@]1(C)C[C@H](O[C@H]2[C@H](Oc3c4cc5cc3Oc3ccc(cc3Cl)[C@@H](O)[C@@H](NC(=O)[C@@H](CC(C)C)NC)C(=O)N[C@@H](CC(N)=O)C(=O)N[C@H]5C(=O)N[C@H]3C(=O)N[C@H](C(=O)N[C@H](C(=O)O)c5cc(O)cc(O)c5-c5cc3ccc5O)[C@H](O)c3ccc(c(Cl)c3)O4)O[C@H](CO)[C@@H](O)[C@@H]2O)O[C@@H](C)[C@H]1O)C(=O)O (stereo not given in full)
IC50 (Staphylococcus aureus [1]): 4 µg/mL (≈ 2.47 µM) | IC50 (Staphylococcus aureus [2]): 8 µg/mL (≈ 4.93 µM)

CN[C@H](CC(C)C)C(=O)N[C@H]1C(=O)N[C@@H](CC(N)=O)C(=O)N[C@H]2C(=O)N[C@H]3C(=O)N[C@H](C(=O)N[C@H](C(=O)O)c4cc(O)cc(O)c4-c4cc3ccc4O)[C@H](O)c3ccc(c(Cl)c3)Oc3cc2cc(c3O[C@@H]2O[C@H](CO)[C@@H](O)[C@H](O)[C@H]2O[C@H]2C[C@](C)(N)[C@H](O)[C@H](C)O2)Oc2ccc(cc2Cl)[C@H]1O [VANCOMYCIN]
IC50 (Staphylococcus aureus [1]): 2 µg/mL (≈ 1.38 µM) | IC50 (Staphylococcus aureus [2]): 8 µg/mL (≈ 5.52 µM)

CCCCOC(CN[C@@]1(C)C[C@H](O[C@H]2[C@H](Oc3c4cc5cc3Oc3ccc(cc3Cl)[C@@H](O)[C@@H](NC(=O)[C@@H](CC(C)C)NC)C(=O)N[C@@H](CC(N)=O)C(=O)N[C@H]5C(=O)N[C@H]3C(=O)N[C@H](C(=O)N[C@H](C(=O)O)c5cc(O)cc(O)c5-c5cc3ccc5O)[C@H](O)c3ccc(c(Cl)c3)O4)O[C@H](CO)[C@@H](O)[C@@H]2O)O[C@@H](C)[C@H]1O)C(=O)O (stereo not given in full)
IC50 (Staphylococcus aureus [1]): 64 µg/mL (≈ 40.2 µM) | IC50 (Staphylococcus aureus [2]): 128 µg/mL (≈ 80.3 µM)

CCCCCCOC(CN[C@@]1(C)C[C@H](O[C@H]2[C@H](Oc3c4cc5cc3Oc3ccc(cc3Cl)[C@@H](O)[C@@H](NC(=O)[C@@H](CC(C)C)NC)C(=O)N[C@@H](CC(N)=O)C(=O)N[C@H]5C(=O)N[C@H]3C(=O)N[C@H](C(=O)N[C@H](C(=O)O)c5cc(O)cc(O)c5-c5cc3ccc5O)[C@H](O)c3ccc(c(Cl)c3)O4)O[C@H](CO)[C@@H](O)[C@@H]2O)O[C@@H](C)[C@H]1O)C(=O)OC (stereo not given in full)
IC50 (Staphylococcus aureus [1]): 2 µg/mL (≈ 1.22 µM) | IC50 (Staphylococcus aureus [2]): 4 µg/mL (≈ 2.45 µM)

CN[C@H](CC(C)C)C(=O)N[C@H]1C(=O)N[C@@H](CC(N)=O)C(=O)N[C@H]2C(=O)N[C@H]3C(=O)N[C@H](C(=O)N[C@H](C(=O)O)c4cc(O)cc(O)c4-c4cc3ccc4O)[C@H](O)c3ccc(c(Cl)c3)Oc3cc2cc(c3O[C@@H]2O[C@H](CO)[C@@H](O)[C@H](O)[C@H]2O[C@H]2C[C@](C)(NCC(OCc3ccccc3)C(=O)OC)[C@H](O)[C@H](C)O2)Oc2ccc(cc2Cl)[C@H]1O (stereo not given in full)
IC50 (Staphylococcus aureus [1]): 8 µg/mL (≈ 4.87 µM) | IC50 (Staphylococcus aureus [2]): 32 µg/mL (≈ 19.5 µM)

CN[C@H](CC(C)C)C(=O)N[C@H]1C(=O)N[C@@H](CC(N)=O)C(=O)N[C@H]2C(=O)N[C@H]3C(=O)N[C@H](C(=O)N[C@H](C(=O)O)c4cc(O)cc(O)c4-c4cc3ccc4O)[C@H](O)c3ccc(c(Cl)c3)Oc3cc2cc(c3O[C@@H]2O[C@H](CO)[C@@H](O)[C@H](O)[C@H]2O[C@H]2C[C@](C)(NCC(OCc3ccc(-c4ccc(Cl)cc4)cc3)C(=O)O)[C@H](O)[C@H](C)O2)Oc2ccc(cc2Cl)[C@H]1O (stereo not given in full)
IC50 (Staphylococcus aureus [1]): < 0.125 µg/mL | IC50 (Staphylococcus aureus [2]): 2 µg/mL (≈ 1.15 µM)

CN[C@H](CC(C)C)C(=O)N[C@H]1C(=O)N[C@@H](CC(N)=O)C(=O)N[C@H]2C(=O)N[C@H]3C(=O)N[C@H](C(=O)N[C@H](C(=O)O)c4cc(O)cc(O)c4-c4cc3ccc4O)[C@H](O)c3ccc(c(Cl)c3)Oc3cc2cc(c3O[C@@H]2O[C@H](CO)[C@@H](O)[C@H](O)[C@H]2O[C@H]2C[C@](C)(NCC(OCc3ccc(-c4ccc(Cl)cc4)cc3)C(=O)OC)[C@H](O)[C@H](C)O2)Oc2ccc(cc2Cl)[C@H]1O (stereo not given in full)
IC50 (Staphylococcus aureus [1]): < 0.125 µg/mL | IC50 (Staphylococcus aureus [2]): 2 µg/mL (≈ 1.14 µM)

CCCCOC(CN[C@@]1(C)C[C@H](O[C@H]2[C@H](Oc3c4cc5cc3Oc3ccc(cc3Cl)[C@@H](O)[C@@H](NC(=O)[C@@H](CC(C)C)NC)C(=O)N[C@@H](CC(N)=O)C(=O)N[C@H]5C(=O)N[C@H]3C(=O)N[C@H](C(=O)N[C@H](C(=O)O)c5cc(O)cc(O)c5-c5cc3ccc5O)[C@H](O)c3ccc(c(Cl)c3)O4)O[C@H](CO)[C@@H](O)[C@@H]2O)O[C@@H](C)[C@H]1O)C(=O)OC (stereo not given in full)
IC50 (Staphylococcus aureus [1]): 16 µg/mL (≈ 9.95 µM) | IC50 (Staphylococcus aureus [2]): 64 µg/mL (≈ 39.8 µM)

CN[C@H](CC(C)C)C(=O)N[C@H]1C(=O)N[C@@H](CC(N)=O)C(=O)N[C@H]2C(=O)N[C@H]3C(=O)N[C@H](C(=O)N[C@H](C(=O)O)c4cc(O)cc(O)c4-c4cc3ccc4O)[C@H](O)c3ccc(c(Cl)c3)Oc3cc2cc(c3O[C@@H]2O[C@H](CO)[C@@H](O)[C@H](O)[C@H]2O[C@H]2C[C@](C)(NCc3ccc(-c4ccc(Cl)cc4)cc3)[C@H](O)[C@H](C)O2)Oc2ccc(cc2Cl)[C@H]1O
IC50 (Staphylococcus aureus [1]): < 0.125 µg/mL | IC50 (Staphylococcus aureus [2]): 2 µg/mL (≈ 1.21 µM)

CN[C@H](CC(C)C)C(=O)N[C@H]1C(=O)N[C@@H](CC(N)=O)C(=O)N[C@H]2C(=O)N[C@H]3C(=O)N[C@H](C(=O)N[C@H](C(=O)O)c4cc(O)cc(O)c4-c4cc3ccc4O)[C@H](O)c3ccc(c(Cl)c3)Oc3cc2cc(c3O[C@@H]2O[C@H](CO)[C@@H](O)[C@H](O)[C@H]2O[C@H]2C[C@](C)(NCC(OCc3ccccc3)C(=O)O)[C@H](O)[C@H](C)O2)Oc2ccc(cc2Cl)[C@H]1O (stereo not given in full)
IC50 (Staphylococcus aureus [1]): 16 µg/mL (≈ 9.83 µM) | IC50 (Staphylococcus aureus [2]): 64 µg/mL (≈ 39.3 µM)
